Test results: the supplement of paper PMC10307832

What was measured:
Assay in all cases: relative viability (nuclei count vs DMSO), 5 days (fraction); higher = more cells survive
[1] = tested on: BEN
How it was run: (§1)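 Nuclei were stained with Hoechst during a one-step fixation (final 0.05% Triton X-100, 1% formaldehyde, 1 ug/ml Hoechst) carried out 5 days after dosing, then counted on 4× images. The cells, lung cancer lines in 1536-well plates, had been dosed by pin tool the day after seeding with one drug alone or a fixed anchor-drug dose plus five library-drug doses (not always all listed) in √10 steps. Relative viability is the nuclei count in treated wells divided by that in vehicle wells, and each value is the median of duplicate plates.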

[2] = tested on: EKVX
How it was run: as §1

[3] = tested on: HCC-827
How it was run: as §1

[4] = tested on: HOP-62
How it was run: as §1

[5] = tested on: LCLC-103H
How it was run: as §1

[6] = tested on: LK-2
How it was run: as §1

[7] = tested on: LOU-NH91
How it was run: as §1

[8] = tested on: LXF-289
How it was run: as §1

[9] = tested on: NCI-H1355
How it was run: as §1

[10] = tested on: NCI-H1437
How it was run: as §1

[11] = tested on: NCI-H1666
How it was run: as §1

[12] = tested on: NCI-H1944
How it was run: as §1

[13] = tested on: NCI-H1993
How it was run: as §1

[14] = tested on: NCI-H2126
How it was run: as §1

[15] = tested on: NCI-H441
How it was run: as §1

[16] = tested on: NCI-H647
How it was run: as §1

[17] = tested on: NCI-H661
How it was run: as §1

[18] = tested on: NCI-H727
How it was run: as §1

[19] = tested on: PC-14
How it was run: as §1

[20] = tested on: RERF-LC-KJ
How it was run: as §1

[21] = tested on: SK-MES-1
How it was run: as §1

Compound: CN1CCN(CCOc2cc(OC3CCOCC3)c3c(Nc4c(Cl)ccc5c4OCO5)ncnc3c2)CC1 [Saracatinib] + C[C@]1(O)C[C@@H](c2nc(-c3ccc4ccc(-c5ccccc5)nc4c3)c3c(N)nccn32)C1 [Linsitinib] (partner 1 µM)
- relative viability ([1]; first compound 0.02 µM): 0.991
- relative viability ([1]; first compound 0.2 µM): 0.914
- relative viability ([1]; first compound 0.6325 µM): 1.15
- relative viability ([1]; first compound 2 µM): 0.64
- relative viability ([2]; first compound 0.02 µM): 0.988
- relative viability ([2]; first compound 0.2 µM): 0.861
- relative viability ([2]; first compound 0.6325 µM): 0.866
- relative viability ([2]; first compound 2 µM): 0.318
- relative viability ([3]; first compound 0.02 µM): 0.981
- relative viability ([3]; first compound 0.2 µM): 0.739
- relative viability ([3]; first compound 0.6325 µM): 0.338
- relative viability ([3]; first compound 2 µM): 0.158
- relative viability ([4]; first compound 0.02 µM): 1.02
- relative viability ([4]; first compound 0.2 µM): 0.731
- relative viability ([4]; first compound 0.6325 µM): 1.35
- relative viability ([4]; first compound 2 µM): 1.01
- relative viability ([5]; first compound 0.02 µM): 1.18
- relative viability ([5]; first compound 0.2 µM): 0.873
- relative viability ([5]; first compound 0.6325 µM): 1.04
- relative viability ([5]; first compound 2 µM): 1.04
- relative viability ([6]; first compound 0.02 µM): 0.52
- relative viability ([6]; first compound 0.2 µM): 0.484
- relative viability ([6]; first compound 0.6325 µM): 0.375
- relative viability ([6]; first compound 2 µM): 0.3
- relative viability ([7]; first compound 0.02 µM): 0.901
- relative viability ([7]; first compound 0.2 µM): 0.603
- relative viability ([7]; first compound 0.6325 µM): 0.594
- relative viability ([7]; first compound 2 µM): 0.518
- relative viability ([8]; first compound 0.02 µM): 0.979
- relative viability ([8]; first compound 0.2 µM): 0.92
- relative viability ([8]; first compound 0.6325 µM): 0.968
- relative viability ([8]; first compound 2 µM): 0.963
- relative viability ([9]; first compound 0.02 µM): 0.793
- relative viability ([9]; first compound 0.2 µM): 0.767
- relative viability ([9]; first compound 0.6325 µM): 0.832
- relative viability ([9]; first compound 2 µM): 0.615
- relative viability ([10]; first compound 0.02 µM): 1.04
- relative viability ([10]; first compound 0.2 µM): 0.985
- relative viability ([10]; first compound 0.6325 µM): 0.981
- relative viability ([10]; first compound 2 µM): 1.09
- relative viability ([11]; first compound 0.02 µM): 0.81
- relative viability ([11]; first compound 0.2 µM): 0.909
- relative viability ([11]; first compound 0.6325 µM): 0.815
- relative viability ([11]; first compound 2 µM): 0.844
- relative viability ([12]; first compound 0.02 µM): 1.21
- relative viability ([12]; first compound 0.6325 µM): 0.971
- relative viability ([12]; first compound 2 µM): 0.704
- relative viability ([13]; first compound 0.02 µM): 0.682
- relative viability ([13]; first compound 0.2 µM): 0.715
- relative viability ([13]; first compound 2 µM): 0.621
- relative viability ([14]; first compound 0.02 µM): 0.74
- relative viability ([14]; first compound 0.2 µM): 0.649
- relative viability ([14]; first compound 0.6325 µM): 0.612
- relative viability ([14]; first compound 2 µM): 0.549
- relative viability ([15]; first compound 0.02 µM): 0.508
- relative viability ([15]; first compound 0.2 µM): 0.515
- relative viability ([15]; first compound 0.6325 µM): 0.682
- relative viability ([15]; first compound 2 µM): 0.604
- relative viability ([16]; first compound 0.02 µM): 1.05
- relative viability ([16]; first compound 0.2 µM): 0.943
- relative viability ([16]; first compound 0.6325 µM): 1.14
- relative viability ([16]; first compound 2 µM): 0.514
- relative viability ([17]; first compound 0.02 µM): 0.525
- relative viability ([17]; first compound 0.2 µM): 0.598
- relative viability ([17]; first compound 0.6325 µM): 0.571
- relative viability ([17]; first compound 2 µM): 0.376
- relative viability ([18]; first compound 0.02 µM): 0.284
- relative viability ([18]; first compound 0.2 µM): 0.159
- relative viability ([18]; first compound 0.6325 µM): 0.26
- relative viability ([18]; first compound 2 µM): 0.176
- relative viability ([19]; first compound 0.02 µM): 0.952
- relative viability ([19]; first compound 0.2 µM): 0.708
- relative viability ([19]; first compound 0.6325 µM): 0.304
- relative viability ([19]; first compound 2 µM): 0.166
- relative viability ([20]; first compound 0.02 µM): 0.938
- relative viability ([20]; first compound 0.2 µM): 0.83
- relative viability ([20]; first compound 0.6325 µM): 0.883
- relative viability ([20]; first compound 2 µM): 0.813
- relative viability ([21]; first compound 0.02 µM): 0.934
- relative viability ([21]; first compound 0.2 µM): 0.903
- relative viability ([21]; first compound 0.6325 µM): 0.87
- relative viability ([21]; first compound 2 µM): 0.471
